# Laboratory results published in patent US20100247579A1, “THERAPEUTIC AGENT FOR CANCER” (priority 2007, published 2010).
# Read-outs that look alike come from different tables or passages of the source.
# What was measured:
# [1] = test system: lymphocytes derived from cancer patient No. PT009 expanded with OKT3 and CH-296; experiment: Resistance to anticancer agents, WST-1 GI50 on cultured lymphocytes of cancer patient No. PT009; type: cell-based, human; settings: Homo sapiens, Lymphocyte, day 10 of culture with OKT3 and CH-296, 20 hours with drug, read-out: GI50
# Procedure: After that, the suspension was stained by the trypan blue staining method to calculate the viable cell count, and then subjected to each experiment.
# (§1) On the other hand, the IL-2/5HRPMI was added to the control group in 50 μL/well each.
# (§2) These culture plates were incubated at 37° C. for 20 hours in the presence of 5% CO2. After the incubation, WST-1 (Premix WST-1 Cell Proliferation Assay System, manufactured by Takara Bio Inc.) was added in 20 μL/well each to each well of the plate, and incubated in the presence of 5% CO2 at 37° C. for 4 hours. The plates after the incubation were centrifuged at 500×g at room temperature for 5 minutes. After the centrifugation, 100 μL of the supernatant was collected from each well, and the absorbance was measured at an absorption wavelength of 450 nm and a control wavelength of 630 nm [hereinafter referred to as the absorbance (450 nm-630 nm)] using a microplate reader (manufactured by Bio-Rad Laboratories, Inc., Model Number 680XR), and then the specific absorbance (450 nm-630 nm) was calculated according to the following formula.
# (§3) Specific absorbance (450 nm-630 nm)=Absorbance of Test Cell Addition Group (450 nm-630 nm)−Absorbance of Control Group (450 nm-630 nm) Formula 2: […]
# [2] = test system: expanded lymphocytes derived from a human healthy donor; experiment: Resistance to anticancer agents, WST-1 GI50 on cultured lymphocytes of a human healthy donor; type: cell-based; settings: Homo sapiens, Lymphocyte
# Procedure: as §1, §2, §3
# Here, a group where only OKT3 was immobilized to the culture equipment in the expansion of the lymphocytes was also set.
# However, in the case of paclitaxel, a human AB type serum was used as a solvent for dilution, and for other drugs, 5HRPMI was used for dilution.
# [3] = healthy donor lymphocytes expanded with OKT3 + CH-296, read-out: GI50 (μg/mL) Initial Stimulation OKT3 + CH-296
# [4] = healthy donor lymphocytes expanded with OKT3 alone, read-out: GI50 (μg/mL) Initial Stimulation OKT3
GI50 [1],SMILES,"GI50 [2, 3]","GI50 [2, 4]"
639 µg/mL,"O=c1[nH]cc(F)c(=O)[nH]1 [Fluorouracil, fluorouracil]",3270 µg/mL,2290 µg/mL
–,"CC(=O)O[C@H]1C(=O)[C@@]2(C)[C@H]([C@H](OC(=O)c3ccccc3)[C@]3(O)C[C@H](OC(=O)[C@H](O)[C@@H](NC(=O)c4ccccc4)c4ccccc4)C(C)=C1C3(C)C)[C@]1(OC(C)=O)CO[C@@H]1C[C@@H]2O [Paclitaxel, paclitaxel]",39.7 µg/mL,34.1 µg/mL
